# Activity calls are given as the source filed them. The rule behind the calls is not given here.
# Experiments:
# Falcipain 2 [1] = target: T1, Falcipain 2 (Plasmodium falciparum, UniProt Q9N6S8); test: Inhibition of recombinant Plasmodium falciparum falcipain-2 expressed in Escherichia coli M15 assessed as reduction in free AMC release using Z-FR-AMC as a substrate measured over 30 mins by fluorometric assay
# T1 sequence (Q9N6S8 whole entry): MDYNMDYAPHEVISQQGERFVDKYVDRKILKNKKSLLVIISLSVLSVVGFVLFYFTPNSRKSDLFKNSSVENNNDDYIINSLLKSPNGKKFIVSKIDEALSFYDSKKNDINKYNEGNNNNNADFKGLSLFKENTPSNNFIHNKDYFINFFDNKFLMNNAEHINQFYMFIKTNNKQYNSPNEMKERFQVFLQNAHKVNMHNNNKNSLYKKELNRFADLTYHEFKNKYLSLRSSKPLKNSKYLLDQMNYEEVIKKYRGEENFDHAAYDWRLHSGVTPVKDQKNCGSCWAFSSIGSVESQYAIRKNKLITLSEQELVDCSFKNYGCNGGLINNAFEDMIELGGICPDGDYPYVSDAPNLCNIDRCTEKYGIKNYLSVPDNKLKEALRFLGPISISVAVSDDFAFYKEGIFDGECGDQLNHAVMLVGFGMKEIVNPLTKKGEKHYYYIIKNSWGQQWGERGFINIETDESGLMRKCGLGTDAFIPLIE
# Falcipain 2 [2] = target: T1, Falcipain 2; test: Inhibition of recombinant Plasmodium falciparum falcipain-2 expressed in Escherichia coli M15 assessed as reduction in free AMC release using Z-FR-AMC as a substrate measured over 30 mins by Cheng-prusoff equation analysis
# Plasmodium falciparum [3] = test: Antimalarial activity against Plasmodium falciparum 3D7 assessed as parasite growth inhibition incubated for 48 hrs by SYBR green DNA fluorescent dye-binding assay; format: functional, organism-based; conditions: 3D7, 48 h
# Plasmodium falciparum [4] = test: Antimalarial activity against asexual blood stage of Plasmodium falciparum assessed as darkly stained dead parasites at EC50 observed at 60 hrs post invasion; format: functional, organism-based
# Plasmodium berghei [5] = test: Antimalarial activity against blood stage of Plasmodium berghei infected in BALB/c mouse assessed as suppression of parasite growth at 12.5 mg/kg, ip administered once daily for 4 consecutive days measured on day 5 by Giemsa staining based assay; format: functional, organism-based; conditions: time 5.0 day
# Plasmodium berghei [6] = test: Antimalarial activity against blood stage of Plasmodium berghei infected in BALB/c mouse assessed as suppression of parasite growth at 12.5 mg/kg, ip administered once daily for 4 consecutive days measured on day 6 by Giemsa staining based assay; format: functional, organism-based; conditions: time 6.0 day
# Plasmodium falciparum [7] = test: Antimalarial activity against laboratory adapted artemisinin-resistant Plasmodium falciparum RT4974 assessed as inhibition of the survival of ring-stage parasite measured after 66 hrs by ring survival assay; format: functional, organism-based
# [8] = Drug degradation in human plasma; format: ADME, cell-free
# Plasmodium berghei [9] = test: Antimalarial activity against blood stage of Plasmodium berghei infected in BALB/c mouse assessed as parasite clearance at 12.5 mg/kg, ip administered once daily for 4 consecutive days measured on day 10 by Giemsa staining based assay (reference value: 0%); format: functional; conditions: time 10 day
# Plasmodium falciparum [10] = test: Antimalarial activity against asexual blood stage of Plasmodium falciparum assessed as abnormalities in food vacuole observed upto 60 hrs post invasion; format: functional, organism-based; conditions: time hrs <=60
# Plasmodium falciparum [11] = test: Antimalarial activity against chloroquine and pyrimethamine-resistant Plasmodium falciparum 7G8 assessed as parasite growth inhibition incubated for 48 hrs by SYBR green DNA fluorescent dye-binding assay; format: functional, organism-based; conditions: 7G8, 48 h
# [12] = target: T2, Heme ligase (Plasmodium falciparum (isolate 3D7)) (UniProt Q8IL04); test: Inhibition of recombinant Plasmodium falciparum heme detoxification protein expressed in Escherichia coli M15 assessed as reduction in hemozoin formation using heme as substrate measured after 3 hrs relative to control; conditions: concentration not given here
# T2 sequence (whole entry): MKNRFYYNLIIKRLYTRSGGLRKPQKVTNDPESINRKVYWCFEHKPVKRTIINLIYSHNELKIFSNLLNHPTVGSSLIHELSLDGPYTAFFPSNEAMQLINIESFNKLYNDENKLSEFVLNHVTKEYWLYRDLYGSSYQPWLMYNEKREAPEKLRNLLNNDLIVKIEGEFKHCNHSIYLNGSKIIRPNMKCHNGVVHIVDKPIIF
# Plasmodium berghei [13] = test: Antimalarial activity against blood stage of Plasmodium berghei infected in BALB/c mouse assessed as mouse survival time at 12.5 mg/kg, ip administered once daily for 4 consecutive days (reference value: 12 to 15 days); format: functional; conditions: time 4 day
# Plasmodium falciparum [14] = test: Antimalarial activity against chloroquine, pyrimethamine and mefloquine-resistant Plasmodium falciparum Dd2 assessed as parasite growth inhibition incubated for 48 hrs by SYBR green DNA fluorescent dye-binding assay; format: functional, organism-based; conditions: Dd2, 48 h
# Plasmodium falciparum [15] = test: Antimalarial activity against asexual blood stage of Plasmodium falciparum assessed as inhibition of mature schizonts development at EC50 observed at 48 hrs post invasion; format: functional, organism-based
# Cytochrome P450 = test: Inhibition of CYP450 (unknown origin); format: ADME, protein assay; conditions: human
# A549 = test: Cytotoxicity against human A549 cells assessed as reduction in cell viability measured after 24 hrs by WST-1 assay; format: cell-based; conditions: A549, 24 h
smiles,measurement,setting,value
COC(=O)[C@H](Cc1ccccc1)NC(=O)[C@H](CO[C@H]1O[C@@H]2O[C@@]3(C)CC[C@H]4[C@H](C)CC[C@@H]([C@H]1C)[C@@]24OO3)NC(=O)OCc1ccccc1,IC50,Falcipain 2 [1],> 100000 nM
same,Ki,Falcipain 2 [2],Not Active
COC(=O)[C@H](CC(C)C)NC(=O)[C@H](CO[C@H]1O[C@@H]2O[C@@]3(C)CC[C@H]4[C@H](C)CC[C@@H]([C@H]1C)[C@@]24OO3)NC(=O)OCc1ccccc1,IC50,Falcipain 2 [1],> 100000 nM
same,Ki,Falcipain 2 [2],Not Active
CCOP(=O)(/C=C/[C@H](NC(=O)[C@H](CC(C)C)NC(=O)[C@H](CO[C@H]1O[C@@H]2O[C@@]3(C)CC[C@H]4[C@H](C)CC[C@@H]([C@H]1C)[C@@]24OO3)NC(=O)OCc1ccccc1)c1ccccc1)OCC,EC50,Plasmodium falciparum [3],16.7 nM
CCOP(=O)(/C=C/[C@H](NC(=O)[C@H](CC(C)C)NC(=O)[C@@H]1C[C@@H](O[C@H]2O[C@@H]3O[C@@]4(C)CC[C@H]5[C@H](C)CC[C@@H]([C@H]2C)[C@@]35OO4)CN1C(=O)OCc1ccccc1)c1ccccc1)OCC,EC50,Plasmodium falciparum [3],6.12 nM
same,Ki,Falcipain 2 [2],Not Active
CCOP(=O)(/C=C/C(NC(=O)[C@H](CC(C)C)NC(=O)[C@@H]1C[C@@H](O[C@H]2O[C@@H]3O[C@@]4(C)CC[C@H]5[C@H](C)CC[C@@H]([C@H]2C)[C@@]35OO4)CN1C(=O)OCc1ccccc1)c1ccccc1)OCC (stereo partly drawn),Activity,Plasmodium falciparum [4],Active
same,Activity,Plasmodium berghei [5],inactive
same,Activity,Plasmodium berghei [6],Active
same,Activity,Plasmodium falciparum [7],Active
same,Stabilty,[8],Unstable
same,Activity,Plasmodium berghei [9],100%
same,Activity,Plasmodium falciparum [10],Active
same,EC50,Plasmodium falciparum [11],1.2 nM
same,inhibition,[12],90%
same,Survival,Plasmodium berghei [13],>60 days
same,EC50,Plasmodium falciparum [14],5.5 nM
same,EC50,Plasmodium falciparum [3],2.57 nM
same,Activity,Plasmodium falciparum [15],Active
same,inhibition (INH),Cytochrome P450,Active
same,EC50,A549,1280 nM
C[C@H]1[C@@H](O)O[C@@H]2O[C@@]3(C)CC[C@H]4[C@H](C)CC[C@@H]1[C@@]24OO3 [ARTENIMOL],IC50,Falcipain 2 [1],> 100000 nM
same,EC50,Plasmodium falciparum [3],4.97 nM
same,Ki,Falcipain 2 [2],Not Active
same,EC50,A549,> 25000 nM
CCOP(=O)(/C=C/C(N)c1ccccc1)OCC (stereo not drawn),IC50,Falcipain 2 [1],> 25000 nM
same,EC50,Plasmodium falciparum [3],> 100000 nM
same,Ki,Falcipain 2 [2],Not Active
same,EC50,A549,> 30000 nM
COC(=O)[C@H](CC(C)C)NC(=O)[C@@H]1C[C@@H](O[C@H]2O[C@@H]3O[C@@]4(C)CC[C@H]5[C@H](C)CC[C@@H]([C@H]2C)[C@@]35OO4)CN1C(=O)OCc1ccccc1,IC50,Falcipain 2 [1],> 100000 nM
same,Ki,Falcipain 2 [2],Not Active
CCOP(=O)(/C=C/C(NC(=O)[C@H](CC(C)C)NC(=O)[C@H](CO[C@H]1O[C@@H]2O[C@@]3(C)CC[C@H]4[C@H](C)CC[C@@H]([C@H]1C)[C@@]24OO3)NC(=O)OCc1ccccc1)c1ccccc1)OCC (stereo partly drawn),Activity,Plasmodium falciparum [4],Active
same,Activity,Plasmodium berghei [5],inactive
same,Activity,Plasmodium berghei [6],Active
same,Activity,Plasmodium falciparum [7],Active
same,Stabilty,[8],Unstable
same,Activity,Plasmodium berghei [9],100%
same,Activity,Plasmodium falciparum [10],Active
same,EC50,Plasmodium falciparum [11],0.23 nM
same,inhibition,[12],60%
same,Survival,Plasmodium berghei [13],>60 days
same,EC50,Plasmodium falciparum [14],3.5 nM
same,EC50,Plasmodium falciparum [3],3.3 nM
same,Activity,Plasmodium falciparum [15],Active
same,inhibition (INH),Cytochrome P450,Active
same,EC50,A549,3820 nM
COC(=O)[C@H](CO[C@H]1O[C@@H]2O[C@@]3(C)CC[C@H]4[C@H](C)CC[C@@H]([C@H]1C)[C@@]24OO3)NC(=O)OCc1ccccc1,IC50,Falcipain 2 [1],> 100000 nM
same,Ki,Falcipain 2 [2],Not Active
CCOP(=O)(/C=C/[C@H](NC(=O)[C@H](Cc1ccccc1)NC(=O)[C@H](CO[C@H]1O[C@@H]2O[C@@]3(C)CC[C@H]4[C@H](C)CC[C@@H]([C@H]1C)[C@@]24OO3)NC(=O)OCc1ccccc1)c1ccccc1)OCC,EC50,Plasmodium falciparum [3],2.03 nM
CCOP(=O)(/C=C/C(NC(=O)[C@H](Cc1ccccc1)NC(=O)[C@@H]1C[C@@H](O[C@H]2O[C@@H]3O[C@@]4(C)CC[C@H]5[C@H](C)CC[C@@H]([C@H]2C)[C@@]35OO4)CN1C(=O)OCc1ccccc1)c1ccccc1)OCC (stereo partly drawn),IC50,Falcipain 2 [1],> 100000 nM
same,Ki,Falcipain 2 [2],Not Active
CCOP(=O)(/C=C/C(NC(=O)[C@@H]1C[C@@H](O[C@H]2O[C@@H]3O[C@@]4(C)CC[C@H]5[C@H](C)CC[C@@H]([C@H]2C)[C@@]35OO4)CN1C(=O)OCc1ccccc1)c1ccccc1)OCC (stereo partly drawn),IC50,Falcipain 2 [1],> 100000 nM
same,Ki,Falcipain 2 [2],Not Active
CCOP(=O)(/C=C/[C@@H](NC(=O)[C@H](CC(C)C)NC(=O)[C@@H]1C[C@@H](O[C@H]2O[C@@H]3O[C@@]4(C)CC[C@H]5[C@H](C)CC[C@@H]([C@H]2C)[C@@]35OO4)CN1C(=O)OCc1ccccc1)c1ccccc1)OCC,EC50,Plasmodium falciparum [3],1.04 nM
CCOP(=O)(/C=C/[C@@H](NC(=O)[C@H](Cc1ccccc1)NC(=O)[C@H](CO[C@H]1O[C@@H]2O[C@@]3(C)CC[C@H]4[C@H](C)CC[C@@H]([C@H]1C)[C@@]24OO3)NC(=O)OCc1ccccc1)c1ccccc1)OCC,EC50,Plasmodium falciparum [3],0.95 nM
CCOP(=O)(/C=C/C(NC(=O)[C@H](Cc1ccccc1)NC(=O)[C@H](CO[C@H]1O[C@@H]2O[C@@]3(C)CC[C@H]4[C@H](C)CC[C@@H]([C@H]1C)[C@@]24OO3)NC(=O)OCc1ccccc1)c1ccccc1)OCC (stereo partly drawn),Activity,Plasmodium falciparum [4],Active
same,Activity,Plasmodium berghei [5],inactive
same,Activity,Plasmodium berghei [6],Active
same,Activity,Plasmodium falciparum [7],Active
same,Stabilty,[8],Unstable
same,Activity,Plasmodium berghei [9],80%
same,Activity,Plasmodium falciparum [10],Active
same,EC50,Plasmodium falciparum [11],0.47 nM
same,inhibition,[12],80%
same,Survival,Plasmodium berghei [13],>60 days
same,EC50,Plasmodium falciparum [14],1.9 nM
same,EC50,Plasmodium falciparum [3],2.7 nM
same,Activity,Plasmodium falciparum [15],Active
same,inhibition (INH),Cytochrome P450,Active
same,EC50,A549,14600 nM
CCOP(=O)(/C=C/[C@@H](NC(=O)[C@H](CC(C)C)NC(=O)[C@H](CO[C@H]1O[C@@H]2O[C@@]3(C)CC[C@H]4[C@H](C)CC[C@@H]([C@H]1C)[C@@]24OO3)NC(=O)OCc1ccccc1)c1ccccc1)OCC,EC50,Plasmodium falciparum [3],10.9 nM
CCOP(=O)(/C=C/C(NC(=O)[C@H](CO[C@H]1O[C@@H]2O[C@@]3(C)CC[C@H]4[C@H](C)CC[C@@H]([C@H]1C)[C@@]24OO3)NC(=O)OCc1ccccc1)c1ccccc1)OCC (stereo partly drawn),IC50,Falcipain 2 [1],> 100000 nM
same,Ki,Falcipain 2 [2],Not Active
C[C@@H]1CC[C@H]2[C@@H](C)C(=O)O[C@@H]3O[C@@]4(C)CC[C@@H]1[C@]32OO4 [ARTEMISININ],Activity,Plasmodium berghei [9],0%
same,EC50,Plasmodium falciparum [11],18 nM
same,Survival,Plasmodium berghei [13],15 days
same,EC50,Plasmodium falciparum [14],15 nM
same,EC50,Plasmodium falciparum [3],27 nM
COC(=O)[C@H](Cc1ccccc1)NC(=O)[C@@H]1C[C@@H](O[C@H]2O[C@@H]3O[C@@]4(C)CC[C@H]5[C@H](C)CC[C@@H]([C@H]2C)[C@@]35OO4)CN1C(=O)OCc1ccccc1,IC50,Falcipain 2 [1],> 100000 nM
same,Ki,Falcipain 2 [2],Not Active
COC(=O)[C@@H]1C[C@@H](O[C@H]2O[C@@H]3O[C@@]4(C)CC[C@H]5[C@H](C)CC[C@@H]([C@H]2C)[C@@]35OO4)CN1C(=O)OCc1ccccc1,IC50,Falcipain 2 [1],> 100000 nM
same,Ki,Falcipain 2 [2],Not Active
